Laboratory results reported in BindingDB's records for patent US20250059174 (Enanta Pharmaceuticals, 2025).

Target: Mast/stem cell growth factor receptor Kit (Homo sapiens, UniProt P10721)
Assay: c-KIT Kinase Assay
Protocol: Kinase Reaction: The kinase assay was based on the recommended protocol by c-KIT Kinase Enzyme System from Promega. Recombinant human c-KIT kinase in 3 μL of assay buffer (40 mM Tris pH 7.5, 20 mM MgCl2, 0.1 mg/mL BSA and 50 μM DTT) was added to the test or high control wells and 3 μL of assay buffer was added to the low control wells. The microplate was centrifuged at 800 rotations per minute (rpm) for 60 s and incubated at room temperature (RT) for 30 min. Next, 2 μL of buffered ATP and polyEY substrate solution was added to all wells. The microplate was centrifuged at 800 rpm for 60 s and incubated at RT for 2 h. […] ADP detection with ADP-Glo™ Kinase Assay: After the kinase reaction incubation, 5 μL of ADP-Glo™ reagent was added to all wells. The microplate was centrifuged at 800 rpm for 60 s and incubated at RT for 40 min. Ten microliter (10 μL) of Kinase Detection Reagent (Luciferin-Luciferase system) was then added to all wells. The microplate was centrifuged at 800 rpm for 60 s and incubated at RT for 60 min. Kinase activity was measured as increase in luminescence at RT in an Envision plate reader equipped with 560 nm filters and operating in endpoint mode.

Sequence of Mast/stem cell growth factor receptor Kit (P10721 whole entry): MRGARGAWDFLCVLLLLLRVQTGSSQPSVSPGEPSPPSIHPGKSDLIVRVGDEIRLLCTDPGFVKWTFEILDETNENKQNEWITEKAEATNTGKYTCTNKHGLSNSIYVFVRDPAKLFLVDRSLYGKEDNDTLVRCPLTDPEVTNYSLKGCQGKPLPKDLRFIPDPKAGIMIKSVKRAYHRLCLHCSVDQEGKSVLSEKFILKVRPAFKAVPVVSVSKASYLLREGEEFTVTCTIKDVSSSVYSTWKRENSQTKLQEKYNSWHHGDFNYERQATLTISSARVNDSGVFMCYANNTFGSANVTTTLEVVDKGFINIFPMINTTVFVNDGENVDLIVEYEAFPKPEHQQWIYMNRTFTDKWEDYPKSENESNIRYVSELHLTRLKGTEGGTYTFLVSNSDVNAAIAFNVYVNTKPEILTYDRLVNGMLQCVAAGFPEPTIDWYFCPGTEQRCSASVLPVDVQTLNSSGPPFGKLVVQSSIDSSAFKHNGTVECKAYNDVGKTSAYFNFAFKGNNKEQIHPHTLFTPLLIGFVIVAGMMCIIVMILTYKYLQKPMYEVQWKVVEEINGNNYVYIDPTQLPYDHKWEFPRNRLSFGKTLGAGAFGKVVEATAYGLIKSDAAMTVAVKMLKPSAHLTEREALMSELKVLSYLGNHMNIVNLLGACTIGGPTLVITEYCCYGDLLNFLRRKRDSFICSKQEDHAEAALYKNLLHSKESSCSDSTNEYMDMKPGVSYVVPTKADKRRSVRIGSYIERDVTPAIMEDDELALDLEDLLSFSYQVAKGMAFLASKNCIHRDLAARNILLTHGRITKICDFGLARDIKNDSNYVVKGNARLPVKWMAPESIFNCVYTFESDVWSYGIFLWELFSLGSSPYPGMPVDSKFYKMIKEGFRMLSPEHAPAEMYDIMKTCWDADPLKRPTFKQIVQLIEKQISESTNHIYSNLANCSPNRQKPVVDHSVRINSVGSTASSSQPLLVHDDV

Structure (SMILES): Cc1ccc(-c2noc(C3C[C@@H]3F)n2)cc1NC(=O)c1cnn2ccc(-c3cnn(C(F)F)c3)cc12 (stereo partly drawn) [US20250059174, Example 2a]
- IC50: < 100 nM

Structure (SMILES): Cc1ccc(-c2noc([C@H]3C[C@@H]3F)n2)cc1NC(=O)c1cnc(N2CC(C(=O)O)C2)s1 [US20250059174, Example 98-4]
- IC50: > 1000 nM

Structure (SMILES): Cc1ccc(-c2noc(C3C[C@@H]3F)n2)cc1NC(=O)c1cnn2ccc(N3C[C@H](CS(C)(=O)=O)[C@@H]3C)cc12 (stereo partly drawn) [US20250059174, Example 172]
- IC50: < 100 nM
